This note sets out measurements from ChEMBL document CHEMBL1201862, “PubChem BioAssay data set” (2004).

The source made the active and inactive calls. Bounds are passed on as bounds.

Data set [1] can be described thus: decrease of insulin promoter-GFP reporter – imaging, high-content screening, mouse beta cells (AID 1628). Format: functional. The following applies: MIN6.
The nature of data set [2]: MIN6 cell viability loss – mouse insulinoma, cytotoxicity control, dose response (AID 2122).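 Also: confirmatory high-throughput counterscreen run to flag cytotoxic compounds.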 Format: functional.
A further data set addresses Ion channel NompC (Danio rerio, UniProt Q7T1G6). Briefly: Dose response cell-based high-throughput screening assay for agonists of the transient receptor potential channel N1 (TRPN1). [Related pubchem assays (depositor defined):AID1424, AID1448]. Format: functional.
The next data set concerns the target Mucolipin-3 (Homo sapiens, UniProt Q8TDD5). Briefly: Fluorescence counterscreen assay for […] agonists: dose response cell-based high-throughput screening assay to identify agonists of the transient receptor potential channel ML3 (TRPML3). [Related pubchem assays: 1424, 1448 ]. Format: functional. (In general: A counterscreen serves to expose hits that act by an unwanted route or on another target.)

Data set [3] concerns the target T1, Carboxy-terminal domain RNA polymerase II polypeptide A small phosphatase 1 (Homo sapiens, UniProt Q9GZU7).
T1 sequence (Q9GZU7 whole entry): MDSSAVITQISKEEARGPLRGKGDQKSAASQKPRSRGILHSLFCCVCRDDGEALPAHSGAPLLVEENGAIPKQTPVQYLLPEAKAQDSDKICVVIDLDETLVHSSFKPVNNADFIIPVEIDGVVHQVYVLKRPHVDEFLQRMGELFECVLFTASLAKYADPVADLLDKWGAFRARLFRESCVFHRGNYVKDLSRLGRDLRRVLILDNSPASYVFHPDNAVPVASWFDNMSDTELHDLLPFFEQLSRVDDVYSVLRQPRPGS
Briefly: CTDSP1 inhibitors, concentration-response, biochemical, absorbance readout, ultra-high-throughput screen actives (AID 540297). Format: functional.

Data set [4] addresses Sphingosine 1-phosphate receptor 1 (Homo sapiens, UniProt P21453). Briefly: Fluorescence-based counterscreen assay for S1P4 agonists: Cell-based dose response high throughput screening assay to identify agonists of the Sphingosine 1-Phosphate Receptor 1 (S1P1). [Related pubchem assays (depositor defined):AID1509, AID1523, AID1801, AID463107, AID463118, AID463119, AID463122, AID463123, AID463129, AID463225, AID504400, AID504460]. Format: functional.

The target in data set [5] is Sphingosine 1-phosphate receptor 4 (Homo sapiens, UniProt O95977). Briefly: Fluorescence dose response cell-based high throughput screening assay for agonists of the Sphingosine 1-Phosphate Receptor 4 (S1P4). [Related pubchem assays: 1509 (Primary screen.), 1523 (Confirmation screen in triplicates.)]. Format: functional.
A short description of data set [6]: PhoP promoter GFP reporter reduction in Typhimurium – purified and synthesized compounds, set 2, PhoP regulon inhibitor project, dose response (AID 2831). Format: functional.
The target in data set [7] is Nucleotide-binding oligomerization domain-containing protein 1 (Homo sapiens, UniProt Q9Y239). The data set can be described thus: SAR analysis of compounds that inhibit NOD1 - Set 3. [Related pubchem assays (depositor defined):AID1566, AID1575, AID1578, AID1849, AID1852, AID2333, AID2335, AID2466]. Format: functional.
Another data set deals with Tumor necrosis factor (Homo sapiens, UniProt P01375). Briefly: analog potency on TNFa NF-kB signaling – cell-based, set 3, SAR follow-up (AID 2801). Format: functional.
Sequence of Tumor necrosis factor (P01375 whole entry): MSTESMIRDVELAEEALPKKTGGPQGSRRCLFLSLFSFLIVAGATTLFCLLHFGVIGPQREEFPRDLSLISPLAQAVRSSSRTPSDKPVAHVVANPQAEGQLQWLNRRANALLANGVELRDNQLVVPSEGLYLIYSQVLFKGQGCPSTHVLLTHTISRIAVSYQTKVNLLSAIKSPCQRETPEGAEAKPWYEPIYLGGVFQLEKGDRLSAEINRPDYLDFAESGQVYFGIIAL
In the next data set the test system is HEK293. The data set can be described thus: SAR analysis of compounds that are cytotoxic to HEK293 - Set 3. [Related pubchem assays (depositor defined):AID1575, AID1578, AID1848, AID1849, AID2001, AID2333, AID2334, AID2335, AID2337, AID2469]. Format: functional, cell-based. The settings on record: Homo sapiens.
In data set [8] the target is Nucleotide-binding oligomerization domain-containing protein 2 (Homo sapiens, UniProt Q9HC29). Briefly: inhibition of MDP-driven NOD2 NF-kB reporter – cell-based, set 3, SAR follow-up (AID 2799). Format: functional.
In data set [9] the target is T2, Tyrosine-protein phosphatase non-receptor type 7 (Homo sapiens, UniProt P35236).
T2 sequence (P35236 whole entry): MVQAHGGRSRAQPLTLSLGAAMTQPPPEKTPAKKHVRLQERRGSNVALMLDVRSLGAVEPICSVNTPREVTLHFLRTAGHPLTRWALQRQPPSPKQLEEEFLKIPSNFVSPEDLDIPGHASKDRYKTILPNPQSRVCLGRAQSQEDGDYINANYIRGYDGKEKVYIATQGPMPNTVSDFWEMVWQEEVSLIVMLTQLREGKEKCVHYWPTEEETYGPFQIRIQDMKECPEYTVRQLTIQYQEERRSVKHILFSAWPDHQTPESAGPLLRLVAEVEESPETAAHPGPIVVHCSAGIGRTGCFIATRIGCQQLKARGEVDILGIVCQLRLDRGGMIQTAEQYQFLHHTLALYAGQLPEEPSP
Format: functional.

Data set [10] deals with T3, Tyrosine-protein phosphatase non-receptor type 22 (Homo sapiens, UniProt Q9Y2R2).
T3 sequence (Q9Y2R2 whole entry): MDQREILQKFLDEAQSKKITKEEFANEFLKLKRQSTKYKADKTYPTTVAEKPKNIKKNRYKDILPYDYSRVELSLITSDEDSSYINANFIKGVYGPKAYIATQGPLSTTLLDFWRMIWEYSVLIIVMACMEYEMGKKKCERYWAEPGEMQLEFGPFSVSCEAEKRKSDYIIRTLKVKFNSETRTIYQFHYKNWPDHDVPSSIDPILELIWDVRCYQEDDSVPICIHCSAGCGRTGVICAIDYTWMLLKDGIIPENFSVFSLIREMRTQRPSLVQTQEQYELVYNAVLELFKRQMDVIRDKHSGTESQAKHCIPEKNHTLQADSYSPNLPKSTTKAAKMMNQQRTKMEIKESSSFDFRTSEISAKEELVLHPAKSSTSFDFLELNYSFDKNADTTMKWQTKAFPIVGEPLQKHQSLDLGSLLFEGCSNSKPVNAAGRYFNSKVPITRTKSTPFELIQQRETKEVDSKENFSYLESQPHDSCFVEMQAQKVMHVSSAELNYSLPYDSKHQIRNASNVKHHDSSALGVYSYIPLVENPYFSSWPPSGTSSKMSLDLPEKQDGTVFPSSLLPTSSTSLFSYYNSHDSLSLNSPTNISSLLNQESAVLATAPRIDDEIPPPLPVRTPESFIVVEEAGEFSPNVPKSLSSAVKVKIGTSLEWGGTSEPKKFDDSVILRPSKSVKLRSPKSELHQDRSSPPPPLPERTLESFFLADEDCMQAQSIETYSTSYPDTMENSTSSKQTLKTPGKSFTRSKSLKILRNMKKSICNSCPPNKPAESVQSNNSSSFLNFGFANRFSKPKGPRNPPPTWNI
Format: functional.

Data set [11] has as its target T3, Tyrosine-protein phosphatase non-receptor type 22. Format: functional. This is another data set of the same source.
Data set [12] addresses T4, Kappa-type opioid receptor (Homo sapiens, UniProt P41145). The data set can be described thus: kappa opioid receptor activation by imaging – image-based, set 3, SAR follow-up (AID 488833). Format: functional.
For a further data set, the target named is Mu-type opioid receptor (Homo sapiens, UniProt P35372). The data set can be described thus: SAR Analysis of Agonists of the MOR Receptor using an Image-Based Assay - Set 3. [Related pubchem assays (depositor defined):AID1777, AID1785, AID1786, AID1966, AID2133, AID2136, AID2284, AID2285, AID2352]. Format: functional.
Sequence of Mu-type opioid receptor (P35372 whole entry): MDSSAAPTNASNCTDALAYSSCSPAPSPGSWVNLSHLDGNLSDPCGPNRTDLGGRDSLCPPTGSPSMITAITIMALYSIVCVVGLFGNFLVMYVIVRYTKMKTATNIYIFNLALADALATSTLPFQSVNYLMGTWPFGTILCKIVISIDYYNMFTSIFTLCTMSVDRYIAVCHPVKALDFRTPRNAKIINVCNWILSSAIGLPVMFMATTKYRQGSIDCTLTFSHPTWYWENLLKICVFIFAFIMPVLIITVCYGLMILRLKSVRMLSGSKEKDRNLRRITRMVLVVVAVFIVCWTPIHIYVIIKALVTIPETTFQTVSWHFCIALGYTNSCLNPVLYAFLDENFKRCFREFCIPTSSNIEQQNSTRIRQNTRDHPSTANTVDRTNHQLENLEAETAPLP
Data set [13] concerns the target Delta-type opioid receptor (Homo sapiens, UniProt P41143). The data set can be described thus: SAR Analysis of Agonists of the DOR Receptor using an Image-Based Assay - Set 3. [Related pubchem assays (depositor defined):AID1777, AID1786]. Format: functional.
For data set [14], the target named is T4, Kappa-type opioid receptor. Briefly: SAR analysis of small molecule agonists of the kappa opioid receptor via a luminescent beta-arrestin assay - Set 3. [Related pubchem assays (depositor defined):AID1777, AID1785, AID1786, AID1966, AID2133, AID2136, AID2284, AID2500]. Format: functional.
Data set [15] has as its target T5, G-protein coupled receptor 55 (Homo sapiens, UniProt Q9Y2T6). Briefly: inhibition of LPI-stimulated GPR55 beta-arrestin translocation – imaging, U2OS, beta-arrestin-GFP, LPI agonist, primary screen (AID 2013).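 Also: antagonist potency measured as reduced agonist-driven arrestin aggregation.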 Format: functional.
Data set [16] has as its target T6, Cannabinoid receptor 1 (Homo sapiens, UniProt P21554). Briefly: SAR analysis of antagonists of the Cannabinoid Receptor 1 using an Image-Based Assay - Set 2. [Related pubchem assays (depositor defined):AID2013, AID2026]. Format: functional.
For data set [17], the target named is T7, G-protein coupled receptor 35 (Homo sapiens, UniProt Q9HC97). The data set can be described thus: SAR analysis of Agonists of the GPR35 Receptor using an Image-Based Assay - Set 2. [Related pubchem assays (depositor defined):AID2013, AID2026]. Format: functional.
T7 sequence (Q9HC97 whole entry): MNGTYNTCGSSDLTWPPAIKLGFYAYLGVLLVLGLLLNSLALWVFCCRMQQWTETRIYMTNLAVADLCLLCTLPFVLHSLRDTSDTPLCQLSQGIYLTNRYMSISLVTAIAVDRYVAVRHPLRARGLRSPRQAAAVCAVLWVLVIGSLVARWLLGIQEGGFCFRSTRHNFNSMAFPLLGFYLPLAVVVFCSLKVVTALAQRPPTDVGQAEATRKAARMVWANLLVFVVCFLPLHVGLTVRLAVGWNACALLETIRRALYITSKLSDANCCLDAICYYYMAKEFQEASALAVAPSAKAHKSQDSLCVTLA
Data set [18] concerns the target T8, Cannabinoid receptor 2 (Homo sapiens, UniProt P34972). The data set can be described thus: SAR analysis of antagonists of the Cannabinoid Receptor 2 using an Image-Based Assay. [Related pubchem assays (depositor defined):AID2013, AID2026]. Format: functional.
Data set [19] addresses T6, Cannabinoid receptor 1. Briefly: SAR analysis of agonists of the Cannabinoid Receptor 1 using an Image-Based Assay - Set 2. [Related pubchem assays (depositor defined):AID2013, AID2026]. Format: functional.
The target of data set [20] is T7, G-protein coupled receptor 35. The data set can be described thus: SAR analysis of Antagonists of the GPR35 Receptor using an Image-Based Assay - Set 3. [Related pubchem assays (depositor defined):AID2013, AID2026]. Format: functional.
For data set [21], the target named is T5, G-protein coupled receptor 55. Briefly: blockade of LPI-induced GPR55 arrestin translocation – imaging, U2OS, beta-arrestin-GFP, LPI agonist, set 2, SAR follow-up (AID 2820). Format: functional.
The target in data set [22] is T8, Cannabinoid receptor 2. Briefly: SAR analysis of agonists of the Cannabinoid Receptor 2 using an Image-Based Assay. [Related pubchem assays (depositor defined):AID2013, AID2026]. Format: functional.
A short description of data set [23]: Late stage assay provider results from the probe development effort to identify inhibitors of Protein Phosphatase Methylesterase 1 (PME-1): luminescence-based biochemical dose response assay to determine cytotoxicity of inhibitor compounds. [Related pubchem assays (depositor defined):AID2130, AID2143, AID2171, AID2174, AID2177, AID2232, AID2233, AID2291, AID2363, AID2365, AID2366, AID2368, AID2369, AID2371, AID463124, AID463130, AID463131, AID463132, AID463146, AID463149] Panel member name: Fetal Calf Serum. Format: toxicity.

Data set [24] in a line: Late stage assay provider results from the probe development effort to identify inhibitors of Protein Phosphatase Methylesterase 1 (PME-1): luminescence-based […] dose response assay to determine cytotoxicity of inhibitor compounds. [Related pubchem assays (depositor defined):AID2130, AID2143, AID2171, AID2174, AID2177, AID2232, AID2233, AID2291, AID2363, AID2365, AID2366, AID2368, AID2369, AID2371, AID463124, AID463130, AID463131, AID463132, AID463146, AID463149] Panel member name: Serum-free Media. Format: toxicity.

A further data set deals with H9c2. Briefly: cells. Format: functional, cell-based. The following applies: Rattus norvegicus, H9c2, Myocardium.
Data set [25] deals with T9, Fatty acid synthase (Homo sapiens, UniProt P49327). Briefly: inhibition of human FAS-TE enzyme activity – biochemical, endpoint fluorescence intensity, uHTS hits, dose response (AID 624327).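 Also: fluorescence from hydrolysis of an O-methyl fluorescein acyl ester substrate by the enzyme.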 Format: functional.
T9 sequence (P49327 whole entry): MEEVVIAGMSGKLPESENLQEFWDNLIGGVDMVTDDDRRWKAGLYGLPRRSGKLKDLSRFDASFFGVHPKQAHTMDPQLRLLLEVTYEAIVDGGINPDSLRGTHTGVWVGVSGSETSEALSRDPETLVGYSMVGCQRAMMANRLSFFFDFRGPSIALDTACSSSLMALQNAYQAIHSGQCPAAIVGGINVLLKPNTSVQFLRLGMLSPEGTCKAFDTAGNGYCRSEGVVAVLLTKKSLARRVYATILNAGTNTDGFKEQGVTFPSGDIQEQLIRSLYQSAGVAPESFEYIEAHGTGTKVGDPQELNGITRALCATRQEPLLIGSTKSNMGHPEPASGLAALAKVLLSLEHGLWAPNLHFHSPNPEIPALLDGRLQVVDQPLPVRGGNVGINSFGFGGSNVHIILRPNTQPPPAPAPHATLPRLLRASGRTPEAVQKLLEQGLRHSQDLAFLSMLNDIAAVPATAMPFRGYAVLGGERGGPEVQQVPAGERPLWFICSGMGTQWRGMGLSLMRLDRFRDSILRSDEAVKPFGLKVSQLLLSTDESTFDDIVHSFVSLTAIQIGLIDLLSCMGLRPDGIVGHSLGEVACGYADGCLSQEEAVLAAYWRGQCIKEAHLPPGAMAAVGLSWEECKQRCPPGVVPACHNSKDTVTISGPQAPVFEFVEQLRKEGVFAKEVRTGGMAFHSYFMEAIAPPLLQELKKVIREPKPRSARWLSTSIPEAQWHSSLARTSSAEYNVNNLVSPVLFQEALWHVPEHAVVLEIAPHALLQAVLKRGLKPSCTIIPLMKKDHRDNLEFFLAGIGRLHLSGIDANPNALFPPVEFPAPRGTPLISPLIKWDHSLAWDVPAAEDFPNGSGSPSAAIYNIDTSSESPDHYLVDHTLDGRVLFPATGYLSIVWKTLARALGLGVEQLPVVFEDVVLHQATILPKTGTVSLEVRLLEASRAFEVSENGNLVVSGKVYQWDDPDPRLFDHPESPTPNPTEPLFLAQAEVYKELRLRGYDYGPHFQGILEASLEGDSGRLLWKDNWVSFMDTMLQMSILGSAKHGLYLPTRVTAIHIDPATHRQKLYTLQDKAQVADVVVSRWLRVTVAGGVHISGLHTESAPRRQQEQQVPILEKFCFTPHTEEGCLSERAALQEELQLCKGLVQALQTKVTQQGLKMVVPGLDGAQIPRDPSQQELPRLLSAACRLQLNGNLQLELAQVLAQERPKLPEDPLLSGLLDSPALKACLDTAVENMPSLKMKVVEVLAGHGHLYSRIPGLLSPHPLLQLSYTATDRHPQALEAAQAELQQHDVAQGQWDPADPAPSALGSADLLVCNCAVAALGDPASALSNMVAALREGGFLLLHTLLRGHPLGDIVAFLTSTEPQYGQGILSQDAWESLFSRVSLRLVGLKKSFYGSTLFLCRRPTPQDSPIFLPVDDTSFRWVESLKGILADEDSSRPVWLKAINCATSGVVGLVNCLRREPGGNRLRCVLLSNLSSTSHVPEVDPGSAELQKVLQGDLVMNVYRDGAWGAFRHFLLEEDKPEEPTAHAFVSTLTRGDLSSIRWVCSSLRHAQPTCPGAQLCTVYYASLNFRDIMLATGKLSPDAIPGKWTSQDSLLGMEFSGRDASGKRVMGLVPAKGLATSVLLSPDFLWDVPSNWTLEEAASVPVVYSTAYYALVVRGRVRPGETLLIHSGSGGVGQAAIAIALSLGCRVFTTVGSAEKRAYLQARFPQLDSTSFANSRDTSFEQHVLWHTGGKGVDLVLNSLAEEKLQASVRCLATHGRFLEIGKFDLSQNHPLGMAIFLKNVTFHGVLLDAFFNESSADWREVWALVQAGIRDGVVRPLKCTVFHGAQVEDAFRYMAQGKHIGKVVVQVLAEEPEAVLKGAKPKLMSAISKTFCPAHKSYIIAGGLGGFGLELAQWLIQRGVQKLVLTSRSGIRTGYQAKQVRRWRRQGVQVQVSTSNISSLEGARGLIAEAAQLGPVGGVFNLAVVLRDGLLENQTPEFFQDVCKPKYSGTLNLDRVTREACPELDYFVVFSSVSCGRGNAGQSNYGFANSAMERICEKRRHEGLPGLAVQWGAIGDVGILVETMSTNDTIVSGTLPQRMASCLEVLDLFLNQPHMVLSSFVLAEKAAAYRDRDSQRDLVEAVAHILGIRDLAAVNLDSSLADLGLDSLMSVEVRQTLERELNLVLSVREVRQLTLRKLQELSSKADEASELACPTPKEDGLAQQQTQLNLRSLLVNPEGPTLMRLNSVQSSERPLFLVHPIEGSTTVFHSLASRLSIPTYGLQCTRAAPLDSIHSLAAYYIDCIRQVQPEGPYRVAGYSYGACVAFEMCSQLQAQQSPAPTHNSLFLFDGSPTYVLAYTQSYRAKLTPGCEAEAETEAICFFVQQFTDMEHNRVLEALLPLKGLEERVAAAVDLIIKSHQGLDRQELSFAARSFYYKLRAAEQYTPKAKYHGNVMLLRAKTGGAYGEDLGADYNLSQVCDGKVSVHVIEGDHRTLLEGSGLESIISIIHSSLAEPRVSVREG
The target of data set [26] is T9, Fatty acid synthase. Briefly: inhibition of human FAS-TE enzyme activity – biochemical, kinetic fluorescence intensity, dose response (AID 624326).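 Also: rate of fluorescence rise from hydrolysis of a fluorogenic O-methyl fluorescein ester substrate.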 Format: functional.

T6 sequence (P21554 whole entry): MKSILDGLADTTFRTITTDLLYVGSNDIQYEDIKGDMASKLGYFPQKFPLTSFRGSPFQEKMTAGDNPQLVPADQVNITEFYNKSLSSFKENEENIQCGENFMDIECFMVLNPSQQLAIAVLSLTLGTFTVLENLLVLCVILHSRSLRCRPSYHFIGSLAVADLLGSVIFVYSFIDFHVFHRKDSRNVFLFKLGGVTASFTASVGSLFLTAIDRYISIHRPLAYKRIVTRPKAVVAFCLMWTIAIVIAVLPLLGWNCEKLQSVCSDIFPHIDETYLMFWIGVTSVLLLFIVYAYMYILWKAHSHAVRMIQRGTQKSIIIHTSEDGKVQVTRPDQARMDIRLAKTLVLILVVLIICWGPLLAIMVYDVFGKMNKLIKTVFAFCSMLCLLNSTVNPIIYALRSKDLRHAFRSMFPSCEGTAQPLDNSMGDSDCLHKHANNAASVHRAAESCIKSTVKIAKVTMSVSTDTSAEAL
T8 sequence (P34972 whole entry): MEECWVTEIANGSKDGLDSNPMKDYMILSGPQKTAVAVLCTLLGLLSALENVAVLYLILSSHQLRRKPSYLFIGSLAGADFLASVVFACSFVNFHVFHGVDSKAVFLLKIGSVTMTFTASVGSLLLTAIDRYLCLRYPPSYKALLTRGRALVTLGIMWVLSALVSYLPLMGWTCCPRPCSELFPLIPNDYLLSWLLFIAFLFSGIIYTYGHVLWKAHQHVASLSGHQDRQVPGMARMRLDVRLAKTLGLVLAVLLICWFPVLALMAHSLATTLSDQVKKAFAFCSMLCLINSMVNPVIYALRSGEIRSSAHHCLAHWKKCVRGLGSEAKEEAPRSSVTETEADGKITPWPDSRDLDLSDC
T5 sequence (Q9Y2T6 whole entry): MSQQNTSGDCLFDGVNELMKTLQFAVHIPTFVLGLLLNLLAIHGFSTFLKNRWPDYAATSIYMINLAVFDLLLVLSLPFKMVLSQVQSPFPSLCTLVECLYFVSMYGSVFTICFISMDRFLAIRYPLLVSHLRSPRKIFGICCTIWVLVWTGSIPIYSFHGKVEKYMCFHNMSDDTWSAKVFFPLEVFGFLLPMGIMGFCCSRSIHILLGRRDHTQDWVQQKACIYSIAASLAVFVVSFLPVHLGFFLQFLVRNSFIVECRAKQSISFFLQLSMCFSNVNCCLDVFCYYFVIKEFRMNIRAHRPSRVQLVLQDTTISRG
T4 sequence (P41145 whole entry): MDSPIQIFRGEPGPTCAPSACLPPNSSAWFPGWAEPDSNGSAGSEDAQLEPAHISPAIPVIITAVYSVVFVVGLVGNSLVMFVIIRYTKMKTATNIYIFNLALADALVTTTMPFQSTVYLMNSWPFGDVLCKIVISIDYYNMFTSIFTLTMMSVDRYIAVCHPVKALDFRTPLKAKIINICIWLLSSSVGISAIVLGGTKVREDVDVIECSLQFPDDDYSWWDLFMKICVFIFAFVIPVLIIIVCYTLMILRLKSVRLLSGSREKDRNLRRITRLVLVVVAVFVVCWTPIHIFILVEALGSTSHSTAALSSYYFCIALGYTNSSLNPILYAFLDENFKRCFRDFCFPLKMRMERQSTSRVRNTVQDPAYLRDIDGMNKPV

Take `CCCc1ccc(C(=O)NC(=O)c2ccccc2O)cc1`: the 50% inhibitory concentration (IC50) in [1] is 4.87 µM (active); in [2], 3.97 µM (active); in data set [3] it was 8.68 µM (active). Moreover, the EC50 at Ion channel NompC is > 3.32 µM (inactive); at Mucolipin-3, 14.7 µM (not active).
`CCOC(=O)c1c(-n2c(C)cc(C=O)c2C)sc2c1CCCC2`: the EC50 is > 49.8 µM (inactive) in data set [4] and > 16.6 µM (not active) in [5].
In the case of `COc1ccc(CNC(=S)Nc2ccncc2)cc1`, the 50% inhibitory concentration (IC50) in data set [6] is > 150 µM (active).
Take `N#Cc1ccccc1S(=O)(=O)n1c(N)nc2ccccc21`: the IC50 (in data set [7]; at Tumor necrosis factor; in the data set with HEK293; in data set [8]) was > 20 µM (inactive) in each case.
With `Cc1ccc2nc(O)cc(C(=O)OCC(=O)c3ccccc3)c2c1`, the IC50 in [9], in data set [10] and in data set [11] was > 79.4 µM (inactive) each time.
For `CC(C)c1ccc(CSc2nnc(-c3ccccn3)n2Cc2cccs2)cc1`, the 50% effective concentration (EC50) in [12] was 2.17 µM (active); on Mu-type opioid receptor it was > 32 µM (inactive); in [13], > 32 µM (inactive); in data set [14], 3.66 µM (active).
On to `Cc1cccn2c(=O)c3cc(C(=O)NCc4ccco4)c(=N)n(C4CCCC4)c3nc12`, for which the IC50 in data set [15] was 1.68 µM (active); at Cannabinoid receptor 1 [16], > 32 µM (inactive); at Cannabinoid receptor 2 [18], > 32 µM (inactive); in data set [20], > 32 µM (inactive); in data set [21], 0.407 µM (active). Further, the EC50 (in data set [17]; on Cannabinoid receptor 1 [19]; at Cannabinoid receptor 2 [22]) was > 32 µM (inactive) each time.
Turning to `COC(=O)N1C(=O)[C@](c2ccccc2)(C2CCCCC2)N1C(=O)OC`, the CC50 in data set [23] and in [24] was > 10 µM (inactive) each time. Moreover, the IC50 was 25.5 µM (active) with H9c2, 0.929 µM (active) at Fatty acid synthase [25] and 0.968 µM (active) on Fatty acid synthase [26].

For orientation: IC50 means the point on the concentration scale where inhibition reaches its midpoint. What is called EC50 is the concentration giving half of the maximal effect. What is called CC50 is the concentration that lowers cell viability or growth by half.
